Test results published in patent US20250205195A1, “BENZYLOXY-BENZYLAMINYL AMINO ACID DERIVATIVE FOR ADJUSTING TSLP/TSLPR SIGNAL TRANSMISSION” (AMTIXBIO CO., LTD., priority 2021, published 2025).

Key:
TSLP = assay: TNF-α-induced TSLP in HaCaT cells (ELISA); format: cell-based, human
Experimental: Human keratinocyte HaCaT cells (obtained from the Korean Cell Line Bank) were seeded in a 12-well plate at an initial density of 2×10^5 cells/well and cultured at 37° C. for 16 to 24 hours. FK506 (Sigma), compounds 27 and 29 of the present invention were then added to the HaCaT cell culture medium at final concentrations of 0, 1, 2, 4, and 8 µg/mL, and the cells were cultured at 37° C. for 1 hour. Next, to induce TSLP, the culture medium was treated with TNF-α (Sigma-Aldrich, USA) to a final concentration of 100 ng/mL, and the cells were cultured for an additional 24 hours at 37° C. The culture supernatant was collected, and the amount of induced TSLP from HaCaT cells was determined using an ELISA kit (R&D Systems, USA) according to the manufacturer's instructions. […] Under the same conditions, to compare the TSLP reduction efficiency R.R. (Reduction rate) of compound 27, positive control compound and compound 29, equal amounts of compounds 27, 29 and FK506 (Sigma-Aldrich, USA) were pretreated for 1 hour. The amount of TSLP released into the culture supernatant from HaCaT cells stimulated by TNF-α was quantitatively analyzed and presented in Table 3 and FIG. 3 (c).

[1] = test system: DNCB-induced atopic dermatitis mice; assay: DNCB-induced atopic dermatitis mouse model; format: in vivo, ICR mice; conditions: vs DNCB-treated group
Experimental: ICR mice (Orient Bio Inc., male, 4 weeks old) were used, with four mice per group. The mice were acclimatized for one week under controlled conditions (23±2° C., humidity 55±10%, 12-hour light/dark cycle, animal facility at Sungkyunkwan University) and were shaved using clippers and depilatory cream before drug treatment. Following the conventional method, 1% DNCB (2,4-dinitrochlorobenzene, Sigma-Aldrich Co., St. Louis, USA) (200 l) was applied to the dorsal area of the mice every 2 days, four times a week for one week. Subsequently, 0.5% DNCB (200 l) was applied again at 2-day intervals, eight times, to induce atopic dermatitis (Ara, J., Mol Cell Toxicol 2019). One week after DNCB treatment, signs of lesions were confirmed in all mice. Then, the mice were topically administered with the compound 27 of the present invention, dissolved in sterile water at a concentration of 1% (w/v), starting from the point of 0.5% DNCB application, once daily for two weeks. The experimental animals were supplied with powdered feed (Purina, Switzerland), and water and feed were freely available throughout the experimental period. Symptoms associated with atopic dermatitis, such as erythema, edema, scaling, crusting, lichenification, inflammation, bleeding and skin dryness, were observed and recorded according to the Scoring Atopic Dermatitis (SCORAD) index in Table 2.
Using the Mosquito Blood Collection System, blood was drawn from the retro-orbital plexus, and serum was separated. Skin tissue proteins were extracted using a homogenizer in 0.2% PBS (phosphate buffer saline). To measure the concentration of IgE, an IgE ELISA kit (Shibayagi, Japan) was used following the manufacturer's instructions, and analysis was performed using an ELISA reader. The concentrations of TNF-α, IL-4, CCL22/MDC, MMP-12, and S100A9 were measured using Luminex® Assays (R&D Systems, USA).
Skin tissues from the mouse dorsal area were separated and fixed in 10% formalin (10% Neutral Buffered Formalin, Kang Dong Trading, South Korea) for 72 hours. The fixed tissues were washed with water for about 1 hour and then processed into paraffin blocks. The paraffin blocks were sectioned into 8 m slices using a microtome, followed by staining with Harris's hematoxylin solution. Subsequently, the sections were treated with 1% HCl-alcohol, neutralized with 0.5% ammonia solution, and stained with Eosin solution. Next, dehydration was performed using alcohol and xylene, and the sections were mounted on slides using Canada balsam. FIGS. 7 (a) and (b) represent the results.
To determine the concentrations of IgE and TSLP in mouse serum, IgE ELISA kit (Shibayagi, JP) and TSLP ELISA kit (R&D systems, USA) were used following the manufacturer's instructions. As shown in FIGS. 8 (a) and (b), the serum concentrations of IgE and TSLP increased in the DNCB-treated group.
Proteins were extracted from skin tissues of atopic dermatitis mice on the dorsal area, and the levels of TNF-α, IL-1β, CCL22/MDC, IL-4, MMP-12, and S100A9 were measured using Luminex® Assays (R&D systems, USA).

[2] = HaCaT culture supernatant, TNF-α stimulated, 1 h pretreatment, equal amounts of compounds

CCC(NC)C(=O)NCc1ccc(OCc2ccc(C(F)(F)F)cc2)cc1 (racemic) [Compound 27, (R)/(S)-2-(methylamino)-N-(4-((4-trifluoromethyl)benzyl)oxy)benzyl)butanamide]
amount of induced TSLP with increasing concentration (TSLP; HaCaT cells, 0, 1, 2, 4 and 8 µg/mL, TNF-α 100 ng/mL, 24 h): decreased | R.R (Reduction rate) of TSLP (TSLP; [2]): 54% | TSLP (TSLP; [2]): 234 ng/mL | CCL22/MDC level in skin tissue ([1]; Luminex): significant decrease | IL-1β level in skin tissue ([1]; Luminex): significant decrease | IL-4 level in skin tissue ([1]; Luminex): significant decrease | MMP-12 level in skin tissue ([1]; Luminex): significant decrease | S100A9 level in skin tissue ([1]; Luminex): significant decrease | TNF-α level in skin tissue ([1]; Luminex): significant decrease | symptoms of dermatitis (SCORAD index) ([1]; topical 1% (w/v), once daily, two weeks): significant reduction | expression of inflammatory cells (H&E, skin tissue) ([1]; topical 1% (w/v)): significant decrease | serum IgE concentration ([1]; topical 1% (w/v)): decrease | serum TSLP concentration ([1]; topical 1% (w/v)): decrease | thickness of the epidermal layer ([1]; topical 1% (w/v)): significant reduction
